According to US9186346B2, “Methods for reducing the risk of an adverse teriflunomide and rosuvastatin interaction in multiple sclerosis patients” (SANOFI, priority 2013, dated 2015):

Legend:
[1] = target: T1, OAT3 (Homo sapiens, UniProt Q8TCC7); test: In vitro inhibition of OAT3
T1 sequence (Q8TCC7 1-542): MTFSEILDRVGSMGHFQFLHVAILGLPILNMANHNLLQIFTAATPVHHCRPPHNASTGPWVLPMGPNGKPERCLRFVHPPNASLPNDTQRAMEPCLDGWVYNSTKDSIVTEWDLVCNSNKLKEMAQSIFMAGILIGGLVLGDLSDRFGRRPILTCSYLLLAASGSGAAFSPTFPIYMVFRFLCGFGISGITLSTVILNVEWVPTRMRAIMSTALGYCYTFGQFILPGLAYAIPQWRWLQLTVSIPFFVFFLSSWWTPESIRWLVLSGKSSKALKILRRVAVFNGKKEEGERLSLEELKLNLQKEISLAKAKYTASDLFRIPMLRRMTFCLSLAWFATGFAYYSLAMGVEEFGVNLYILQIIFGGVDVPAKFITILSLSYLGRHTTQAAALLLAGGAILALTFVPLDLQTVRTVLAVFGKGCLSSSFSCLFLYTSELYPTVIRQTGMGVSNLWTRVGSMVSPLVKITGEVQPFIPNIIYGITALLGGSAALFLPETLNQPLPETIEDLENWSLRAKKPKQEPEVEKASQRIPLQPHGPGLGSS
Excerpt: (§1) The use of teriflunomide for treating multiple sclerosis is described in U.S. Pat. No. 6,794,410.

[2] = target: T2, OATP1B3 (Homo sapiens, UniProt Q9NPD5); test: In vitro inhibition of OATP1B3
T2 sequence (Q9NPD5 1-702): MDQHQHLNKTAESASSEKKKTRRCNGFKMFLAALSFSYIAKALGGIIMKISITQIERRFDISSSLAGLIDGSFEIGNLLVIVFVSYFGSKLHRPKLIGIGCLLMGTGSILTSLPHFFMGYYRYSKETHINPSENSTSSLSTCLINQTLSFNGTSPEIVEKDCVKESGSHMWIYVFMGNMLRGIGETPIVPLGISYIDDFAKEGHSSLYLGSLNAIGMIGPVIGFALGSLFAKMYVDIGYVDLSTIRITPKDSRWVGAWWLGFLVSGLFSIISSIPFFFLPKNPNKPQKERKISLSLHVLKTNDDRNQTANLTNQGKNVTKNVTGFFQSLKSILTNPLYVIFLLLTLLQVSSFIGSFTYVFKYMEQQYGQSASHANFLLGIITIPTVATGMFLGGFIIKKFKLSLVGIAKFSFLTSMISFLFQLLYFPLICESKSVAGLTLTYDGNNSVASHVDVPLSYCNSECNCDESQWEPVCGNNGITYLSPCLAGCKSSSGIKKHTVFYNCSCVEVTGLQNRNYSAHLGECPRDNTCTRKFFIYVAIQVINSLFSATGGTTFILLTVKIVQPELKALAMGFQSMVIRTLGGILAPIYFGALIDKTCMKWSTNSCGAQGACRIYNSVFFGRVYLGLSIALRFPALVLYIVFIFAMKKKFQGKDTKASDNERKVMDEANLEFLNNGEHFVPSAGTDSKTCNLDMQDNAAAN
Excerpt: as §1

[3] = target: T3, BCRP (Homo sapiens, UniProt Q9UNQ0); test: In vitro inhibition of BCRP
T3 sequence (Q9UNQ0 1-655): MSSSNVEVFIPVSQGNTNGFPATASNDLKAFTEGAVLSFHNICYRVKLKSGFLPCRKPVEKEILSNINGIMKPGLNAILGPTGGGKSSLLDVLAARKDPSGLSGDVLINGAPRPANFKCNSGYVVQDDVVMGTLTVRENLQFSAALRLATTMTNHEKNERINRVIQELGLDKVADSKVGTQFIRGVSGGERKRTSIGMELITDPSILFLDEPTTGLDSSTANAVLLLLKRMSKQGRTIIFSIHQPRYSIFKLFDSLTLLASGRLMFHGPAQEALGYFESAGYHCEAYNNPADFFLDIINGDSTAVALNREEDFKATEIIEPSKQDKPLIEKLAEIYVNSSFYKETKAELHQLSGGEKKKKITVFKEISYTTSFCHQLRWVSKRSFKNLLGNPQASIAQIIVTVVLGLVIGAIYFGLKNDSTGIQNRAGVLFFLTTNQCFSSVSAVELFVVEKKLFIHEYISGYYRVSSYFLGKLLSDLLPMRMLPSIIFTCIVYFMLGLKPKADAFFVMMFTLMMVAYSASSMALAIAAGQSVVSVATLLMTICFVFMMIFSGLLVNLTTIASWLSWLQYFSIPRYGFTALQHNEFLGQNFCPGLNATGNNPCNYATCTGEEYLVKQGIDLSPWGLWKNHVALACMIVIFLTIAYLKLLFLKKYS
Excerpt: as §1

[4] = target: T4, human OATP1B1 (Homo sapiens, UniProt Q9Y6L6); test: In vitro inhibition of human OATP1B1
T4 sequence (Q9Y6L6 1-691): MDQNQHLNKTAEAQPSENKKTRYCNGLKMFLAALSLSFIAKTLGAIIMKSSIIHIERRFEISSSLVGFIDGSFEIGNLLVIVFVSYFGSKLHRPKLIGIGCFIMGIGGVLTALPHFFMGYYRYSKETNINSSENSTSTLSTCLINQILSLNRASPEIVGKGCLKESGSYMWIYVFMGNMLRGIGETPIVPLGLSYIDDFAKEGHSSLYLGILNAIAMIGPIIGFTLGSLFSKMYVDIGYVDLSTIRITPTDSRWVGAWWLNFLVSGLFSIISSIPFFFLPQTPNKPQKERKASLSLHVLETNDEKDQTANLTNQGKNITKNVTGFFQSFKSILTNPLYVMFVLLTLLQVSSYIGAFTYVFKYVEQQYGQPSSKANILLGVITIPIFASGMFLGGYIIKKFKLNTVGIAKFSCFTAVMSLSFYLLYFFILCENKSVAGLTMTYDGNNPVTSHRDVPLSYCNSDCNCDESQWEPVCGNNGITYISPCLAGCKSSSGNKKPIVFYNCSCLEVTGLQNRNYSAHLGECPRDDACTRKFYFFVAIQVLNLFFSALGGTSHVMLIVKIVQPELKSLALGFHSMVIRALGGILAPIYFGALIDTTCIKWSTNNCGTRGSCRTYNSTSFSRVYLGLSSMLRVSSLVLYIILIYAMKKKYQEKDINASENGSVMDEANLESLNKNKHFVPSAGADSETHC
Excerpt: as §1

[5] = Crossover interaction study: effect of repeated doses of teriflunomide on the pharmacokinetics of a single dose of rosuvastatin in healthy male subjects; format: in vivo, human
Procedure: A single-center, open-label, 1-sequence, 2-period, 2-treatment crossover study with a 5-day washout between periods was conducted in 15 healthy male subjects aged 18 to 45 to evaluate the effect of repeated doses of teriflunomide on the pharmacokinetics (PK) of a single dose of rosuvastatin 10 mg. All subjects received the following treatments during each period: • 1. Period 1: A single 10 mg dose of rosuvastatin was administered in fasted state followed by a 5-day washout (from Days 1 to 6). Day 6 corresponded to Day 1 of Period 2. • 2. Period 2: A loading dose of 70 mg teriflunomide was administered once a day for 4 days (Days 1 to 4), followed by 14 mg once a day for 8 days (Days 5 to 12) in fed conditions except for Day 12. A single dose of 10 mg rosuvastatin was co-administered with teriflunomide on Day 12 in fasted conditions.
The following PK parameters were calculated using noncompartmental methods from plasma rosuvastatin concentration obtained after single dose administration:
Rosuvastatin: Area under the plasma concentration versus time curve (AUC) from time zero to the real time corresponding to the last concentration above the lower limit of quantitation, tlast, (AUClast) and area under the plasma concentration versus time curve extrapolated to infinity (AUC).
Rosuvastatin: Maximum plasma concentration (Cmax) observed, time to reach maximum concentration (Tmax), tlast, and terminal half-life (t1/2z).
Rosuvastatin: Blood samples were collected at predose, 0.5, 1, 2, 3, 4, 5, 6, 8, 10, 12, 24 and 36 hours postdose on Day 1 of Period 1 and Day 12 of Period 2.
Rosuvastatin plasma concentrations were determined by a validated liquid chromatography couples with tandem mass spectrometry (LC-MS/MS) method, with a LLOQ (lower limit of quantification) of 50.1 pg/mL. Teriflunomide plasma concentrations were determined with a validated LC-MS/MS method with an LLOQ of 0.01 μg/mL.
Rosuvastatin PK parameters and teriflunomide Ctrough (trough plasma concentration) were summarized with descriptive statistics for each treatment.

[6] = following teriflunomide 70 mg QD for 4 days and 14 mg QD for 8 days

Row | SMILES | IC50 [1] [µM] | IC50 [2] [µM] | IC50 [3] [µM] | IC50 [4] [µM] | Increase in mean rosuvastatin AUC [5, 6] [fold] | Increase in mean rosuvastatin Cmax [5, 6] [fold] | AUC(0-t) ([5]; male, human, plasma, rosuvastatin 10 mg alone, mean ± SD, N=15, read-out: Rosuvastatin AUClast) [ng·h/mL] | Tmax ([5]; male, human, plasma, rosuvastatin 10 mg alone, median (min-max), N=15) [h] | Cmax ([5]; male, human, rosuvastatin 10 mg single dose alone, fasted, Day 1 Period 1, plasma, mean ± SD, N=15) [ng/mL] | Rosuvastatin t1/2z ([5]; rosuvastatin 10 mg alone, mean ± SD, N=15) [h]
1 | C/C(O)=C(\C#N)C(=O)Nc1ccc(C(F)(F)F)cc1 [Teriflunomide, (Z)-2-cyano-3-hydroxy-but-2-enoic acid-(4′-trifluoromethylphenyI)-amide] | 1.3 | 7.04 | 0.15 | 7.1 | – | – | – | – | – | –
2 | CC(C)c1nc(N(C)S(C)(=O)=O)nc(-c2ccc(F)cc2)c1/C=C/[C@@H](O)C[C@@H](O)CC(=O)O [Rosuvastatin] | – | – | – | – | 2.51 | 2.65 | 31.5 ± 16.4 | 3 | 3.65 ± 1.78 | 11.1 ± 2.99
